Measurements published in patent publication US10092574B2, “Inhibitors of polynucleotide repeat-associated RNA foci and uses thereof” (VALORISATION-RECHERCHE, LIMITED PARTNERSHIP, priority 2013, dated 2018).

System: TNNT2 exon 5
Experiment: RT-PCR alternative splicing assay, TNNT2 exon 5
Assay type: cell-based, human
Conditions: DM1 myoblasts, 20 μM, 7 days; from 90% (FIG. 8C)
Protocol: Human myoblasts were obtained from the Myosix institute associated with the Association Frangaise contre les Myopathies (AFM). Five primary myoblast lines were obtained as controls, and one line from a DM1 patient with a 3.8 Kb CTG triplet amplification corresponding to approximately 1250 CTG repeats. The human myoblasts are cultivated in HAM-F10 media (SIGMA N6635) with 15% FBS, 1% chick embryo extract, and 390 ng/ml of dexamethasone. One day before adding compounds, 2×10^5 cells were plated in 100 mm plates (for CUGBP1 western blot or RT-PCR alternative splicing assay) or 2×10^4 cells/well are seeded in 12-well plates containing 12 mm round glass coverslips (for FISH to detect RNA foci). […]
For Western blots, CUGBP1 was detected with the 3B1-3D11 monoclonal antibody (mAb) (SIGMA C5112) and GAPDH was detected with the 6C5 mAb (Millipore MAB374). The enhanced chemiluminescence signal (ECL) was acquired and quantified with the ChemiDoc™ MP imaging system (Bio-Rad). […] The alternative splicing of the hnRNPA2/B1 transcript was detected with the primers 5′-[…]-3′ (SEQ ID NO:7) and 5′-[…]-3′ (SEQ ID NO:8). PCR was performed with Taq using standard conditions but the number of amplification cycles was optimized to be in the quantitative range for each gene. […]

## CCCN(CCC)S(=O)(=O)c1ccc(NS(=O)(=O)Cc2ccccc2)cc1 [Compound 15]
  inclusion of foetal TNNT2 exon 5, of total transcripts: 76%
